In PubChem BioAssay (NCI) one finds TGI data, which are given here for 14 molecules.

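Following 48 hours of exposure in 96-well plates, responses at five concentrations were used to interpolate endpoints linearly. The concentration for full growth arrest is given as TGI.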 Where only a bound is given, the exact number is not on record here.

Some test systems named below: 786-0 renal; A549 NSCLC; HCT-15 colon; HT29 colon; SF-268 CNS; SF-295 CNS; SK-MEL-5 melanoma; SNB-75 CNS; SR leukemia; UACC-257 melanoma; HCC-2998 colon.
Assay in all cases: DTP human tumour cell line panel, 48 h

Usually TGI stands for the concentration giving total growth inhibition. A lower TGI goes with more potent growth arrest. On to `COc1cccc(Nc2nc(-c3cccs3)nc3cc(OC)c(OC)cc23)c1`, for which the TGI was 46 µM with 786-0 renal; over 100 µM with A549 NSCLC; 49.3 µM in the test with HCT-15 colon; 48.8 µM in the test with HT29 colon; over 100 µM in the test with SF-268 CNS; 53.1 µM in the test with SF-295 CNS. For the same molecule, the TGI with SK-MEL-5 melanoma is 44.5 µM; with SNB-75 CNS, 73.5 µM; in the test with SR leukemia it was 76.9 µM; with UACC-257 melanoma, over 100 µM.
In the case of `S=C(N/N=C(/c1ccccc1)c1ccccn1)N(Cc1ccccn1)Cc1ccccn1`, the TGI in the test with 786-0 renal worked out at 2.04 µM; with A549 NSCLC, 2.01 µM; with HT29 colon, 2.09 µM; in the test on SF-268 CNS it was 4.84 µM; in the test on SF-295 CNS, 1.82 µM; in the test on SK-MEL-5 melanoma it was 3.12 µM. Moreover, the TGI in the test on SNB-75 CNS worked out at 2.24 µM; in the test on SR leukemia it was 43.5 µM; in the test on UACC-257 melanoma, 2.42 µM.
For `Cc1ccnc(NS(=O)(=O)c2ccc(N=[N+]=[N-])cc2)n1`, the TGI with 786-0 renal, with A549 NSCLC, in the test on HCT-15 colon, with HT29 colon, with SF-268 CNS and with SF-295 CNS was over 100 µM each time. Besides, the TGI with SK-MEL-5 melanoma, in the test with SNB-75 CNS, in the test on SR leukemia and in the test with UACC-257 melanoma was over 100 µM each time.
Regarding `C[C@]12CCC3C4=C(CCC3C1CCC2=O)C(=O)[C@H]1O[C@H]1C4=O` (stereo partly specified), the TGI with 786-0 renal was 3.94 µM; in the test on A549 NSCLC it was 26.4 µM; with HCC-2998 colon, 3.3 µM; in the test with HCT-15 colon, 2.8 µM; in the test with HT29 colon it was 3.45 µM; in the test with SF-268 CNS, 5.32 µM. Also, the TGI with SF-295 CNS is 29.8 µM; in the test on SK-MEL-5 melanoma, 23.9 µM; in the test with SNB-75 CNS it was 8.14 µM; in the test on UACC-257 melanoma it was 34.1 µM.
Consider `CCOC(=O)c1c(CN2CCCC2)n(-c2ccccc2)c2cc(Br)c(O)cc12`, for which the TGI worked out at 31 µM with 786-0 renal; 32 µM in the test with A549 NSCLC; 40.5 µM with HCT-15 colon; 18.2 µM in the test with HT29 colon; 49.7 µM in the test with SF-268 CNS; 32 µM with SF-295 CNS. The TGI in the test with SK-MEL-5 melanoma stood at 26.4 µM; in the test on SNB-75 CNS it was 36.7 µM; in the test with SR leukemia, 42.8 µM; in the test with UACC-257 melanoma it was 32.8 µM.
Consider `CCC(=O)NC(Nc1cc(C)on1)(C(F)(F)F)C(F)(F)F`, for which the TGI with 786-0 renal, in the test with A549 NSCLC, with HCC-2998 colon, with HCT-15 colon, in the test on HT29 colon and with SF-268 CNS was over 100 µM throughout. For the same molecule, the TGI in the test with SK-MEL-5 melanoma, in the test on SNB-75 CNS, with SR leukemia and with UACC-257 melanoma was over 100 µM in each case.
With `COc1ccc(-n2c(C)nc3ccc(NC(=S)Nc4ccccc4)cc3c2=O)cc1`, the TGI with 786-0 renal, in the test on HCC-2998 colon, with HCT-15 colon, in the test with HT29 colon, with SF-268 CNS and with SF-295 CNS was over 100 µM each time. The TGI in the test on SK-MEL-5 melanoma, in the test with SNB-75 CNS, in the test with SR leukemia and in the test on UACC-257 melanoma was over 100 µM in each case.
On to `N#CC(Cc1ccccc1)N(CCC1=CCCCC1)C(c1ccccc1)c1ccccc1` (stereo unspecified), for which the TGI in the test with 786-0 renal, in the test on A549 NSCLC, in the test with HCC-2998 colon, in the test with HCT-15 colon, in the test on HT29 colon and in the test on SF-268 CNS was over 100 µM each time. Further, the TGI with SF-295 CNS, with SK-MEL-5 melanoma, in the test on SNB-75 CNS and with UACC-257 melanoma was over 100 µM throughout.
Take `O=C(Cc1ccc(O)c(O)c1)NCc1c[nH]c2ccccc12`: the TGI in the test on 786-0 renal, with A549 NSCLC, in the test on HCC-2998 colon, in the test on HCT-15 colon, in the test with HT29 colon and in the test on SF-268 CNS was over 100 µM each time. In addition, the TGI with SF-295 CNS, with SK-MEL-5 melanoma, in the test with SNB-75 CNS and in the test with UACC-257 melanoma was over 100 µM throughout.
As to `O=C(OCc1ccccc1)N1CCNCCN(C(=O)OCc2ccccc2)CCNCC1`, the TGI was 47.9 µM in the test on 786-0 renal; over 100 µM in the test on A549 NSCLC; over 100 µM in the test on HCT-15 colon; 42 µM in the test on HT29 colon; 64.3 µM with SF-295 CNS; 26.7 µM in the test on SK-MEL-5 melanoma. For the same molecule, the TGI is 85.2 µM with SNB-75 CNS, over 100 µM in the test with SR leukemia and 46.3 µM with UACC-257 melanoma.
In the case of `CC1(C)O[C@H]2OC(CO[Si](C)(C)C(C)(C)C)C(N=[N+]=[N-])[C@H]2O1` (stereo partly specified), the TGI came to 32.7 µM with 786-0 renal; 35.8 µM with A549 NSCLC; 32.2 µM in the test on HCC-2998 colon; 38.3 µM in the test with HCT-15 colon; 25.5 µM with HT29 colon; 41.3 µM in the test on SF-268 CNS. Also, the TGI in the test with SF-295 CNS turned out to be 24.9 µM; with SNB-75 CNS, 59.3 µM; with SR leukemia, 32.2 µM; with UACC-257 melanoma, 35.5 µM.
For the molecule `Cc1cc(Nc2ccc(S(=O)(=O)O)c3cc(S(=O)(=O)O)cc(S(=O)(=O)O)c23)c2ccccc2n1`, the TGI in the test on 786-0 renal, in the test with A549 NSCLC, with HCC-2998 colon, in the test with HCT-15 colon, with HT29 colon and in the test with SF-268 CNS was over 100 µM in each case. The TGI in the test with SF-295 CNS, in the test with SK-MEL-5 melanoma, in the test with SNB-75 CNS and in the test with UACC-257 melanoma was over 100 µM in each case.
In the case of `Oc1ccc2c(c1)c1c(n2CCN2CCOCC2)-c2ccccc2CC1`, the TGI in the test on 786-0 renal was over 100 µM; with HCT-15 colon, 66.1 µM; in the test with HT29 colon it was 45.8 µM; in the test on SF-268 CNS, over 100 µM; in the test on SF-295 CNS, over 100 µM; in the test on SNB-75 CNS, 76.3 µM. For the same molecule, the TGI is 91.5 µM in the test on SR leukemia and over 100 µM in the test with UACC-257 melanoma.
For the molecule `C#CCn1c(=O)c2ccccc2n(CC#C)c1=O`, the TGI in the test with 786-0 renal, with A549 NSCLC, in the test with HCC-2998 colon, in the test on HCT-15 colon, with HT29 colon and in the test on SF-268 CNS was over 10 µM each time. Also, the TGI in the test on SF-295 CNS, in the test on SK-MEL-5 melanoma, in the test on SNB-75 CNS and in the test with UACC-257 melanoma was over 10 µM in each case.
